# Test results as given in patent publication US20090137549A1, “Novel compounds useful for the treatment of degenerative & inflamatory diseases” (priority 2006, published 2009).
# Target: PDE1A (Homo sapiens, UniProt P54750)
# Assay: PDE1A dose response, Cyclic Nucleotide Phosphodiesterase Assay Kit from Biomol (colorimetric)
# Assay type: biochemical
# Conditions: purified PDE1A enzyme, 100 μM cAMP
# In short: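 Purified PDE1A hydrolysed 100 μM cAMP with 5′-nucleotidase in Tris 20 mM pH 7.4 with calmodulin, Ca2+, Mg2+, 45 min at 37° C. Released phosphate read by malachite-green absorbance at 615 nm. Duplicate 8-point 1/3 dilutions from 20 μM, 1% DMSO; 10 μM vardenafil defined 100% inhibition.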
row,SMILES,IC50
1,"CC(C)(C)n1ncc2c(=O)[nH]c(C3CN(c4nc5ccc(Br)cc5[nH]4)C3)nc21 [Example 126, 6-(1-(6-bromo-1H-benzo[d]imidazol-2-yl)azetidin-3-yl)-1-tert-butyl-1H-pyrazolo[3,4-d]pyrimidin-4(5H)-one]",1 to 100 nM
2,"CC(C)(C)n1ncc2c(=O)[nH]c(C3CN(c4nc5cc(C(F)(F)F)ccc5[nH]4)C3)nc21 [Example 127, 1-tert-butyl-6-(1-(5-(trifluoromethyl)-1H-benzo[d]imidazol-2-yl)azetidin-3-yl)-1H-pyrazolo[3,4-d]pyrimidin-4(5H)-one]",1 to 100 nM
3,"CC(C)(C)n1ncc2c(=O)[nH]c(C3CN(c4nc5ccccc5[nH]4)C3)nc21 [Example 128, 6-(1-(1H-benzo[d]imidazol-2-yl)azetidin-3-yl)-1-tert-butyl-1H-pyrazolo[3,4-d]pyrimidin-4(5H)-one]",1 to 100 nM
4,"O=c1[nH]c(C2CN(c3nc4ccccc4s3)C2)nc2c1cnn2C1CCCCC1 [Example 129, 6-(1-(benzo[d]thiazol-2-yl)azetidin-3-yl)-1-cyclohexyl-1H-pyrazolo[3,4-d]pyrimidin-4(5H)-one]",101 to 500 nM
5,"O=c1[nH]c(C2CN(c3nc4ccccc4o3)C2)nc2c1cnn2C1CCCCC1 [Example 130, 6-(1-(benzo[d]oxazol-2-yl)azetidin-3-yl)-1-cyclohexyl-1H-pyrazolo[3,4-d]pyrimidin-4(5H)-one]",101 to 500 nM
6,"Cn1c(N2CC(c3nc4c(cnn4C4CCCCC4)c(=O)[nH]3)C2)nc2ccccc21 [Example 131, 1-cyclohexyl-6-(1-(1-methyl-1H-benzo[d]imidazol-2-yl)azetidin-3-yl)-1H-pyrazolo[3,4-d]pyrimidin-4(5H)-one]",501 to 1000 nM
7,"O=c1[nH]c(C2CN(c3nc(-c4ccccc4)co3)C2)nc2c1cnn2C1CCCCC1 [Example 132, 1-cyclohexyl-6-(1-(4-phenyloxazol-2-yl)azetidin-3-yl)-1H-pyrazolo[3,4-d]pyrimidin-4(5H)-one]",1 to 100 nM
8,"O=c1[nH]c(C2CN(c3nnc(-c4ccccc4)o3)C2)nc2c1cnn2C1CCCCC1 [Example 133, 1-cyclohexyl-6-(1-(5-phenyl-1,3,4-oxadiazol-2-yl)azetidin-3-yl)-1H-pyrazolo[3,4-d]pyrimidin-4(5H)-one]",101 to 500 nM
9,"O=c1[nH]c(C2CN(c3ncc(CN4CCOCC4)s3)C2)nc2c1cnn2C1CCCCC1 [Example 134, 1-cyclohexyl-6-(1-(5-(morpholinomethyl)thiazol-2-yl)azetidin-3-yl)-1H-pyrazolo[3,4-d]pyrimidin-4(5H)-one]",101 to 500 nM
10,"O=c1[nH]c(C2CN(c3ncc(CN4CCCCC4)s3)C2)nc2c1cnn2C1CCCCC1 [Example 135, 1-cyclohexyl-6-(1-(5-(piperidin-1-ylmethyl)thiazol-2-yl)azetidin-3-yl)-1H-pyrazolo[3,4-d]pyrimidin-4(5H)-one]",101 to 500 nM
11,"O=c1[nH]c(C2CN(c3ncc(-c4ccccc4)o3)C2)nc2c1cnn2C1CCCCC1 [Example 136, 1-cyclohexyl-6-(1-(5-phenyloxazol-2-yl)azetidin-3-yl)-1H-pyrazolo[3,4-d]pyrimidin-4(5H)-one]",101 to 500 nM
12,"CN1CCN(Cc2cnc(N3CC(c4nc5c(cnn5C5CCCCC5)c(=O)[nH]4)C3)s2)CC1 [Example 137, 1-cyclohexyl-6-(1-(5-((4-methylpiperazin-1-yl)methyl)thiazol-2-yl)azetidin-3-yl)-1H-pyrazolo[3,4-d]pyrimidin-4(5H)-one]",101 to 500 nM
13,"O=c1[nH]c(C2CN(c3ncc(CN4CCCCCC4)s3)C2)nc2c1cnn2C1CCCCC1 [Example 138, 6-(1-(5-(azepan-1-ylmethyl)thiazol-2-yl)azetidin-3-yl)-1-cyclohexyl-1H-pyrazolo[3,4-d]pyrimidin-4(5H)-one]",101 to 500 nM
14,"Cc1nn(C(C)(C)C)c2nc(C3CN(c4nnnn4-c4ccccc4)C3)[nH]c(=O)c12 [Example 139, 1-tert-butyl-3-methyl-6-(1-(1-phenyl-1H-tetrazol-5-yl)azetidin-3-yl)-1H-pyrazolo[3,4-d]pyrimidin-4(5H)-one]",101 to 500 nM
15,"O=c1[nH]c(C2CN(c3ncc(Br)s3)C2)nc2c1cnn2C1CCCCC1 [Example 140, 6-(1-(5-bromothiazol-2-yl)azetidin-3-yl)-1-cyclohexyl-1H-pyrazolo[3,4-d]pyrimidin-4(5H)-one]",501 to 1000 nM
16,"CC(C)(C)n1ncc2c(=O)[nH]c(C3CN(c4nccs4)C3)nc21 [Example 141, 1-tert-butyl-6-(1-(thiazol-2-yl)azetidin-3-yl)-1H-pyrazolo[3,4-d]pyrimidin-4(5H)-one]",501 to 1000 nM
17,"O=c1[nH]c(C2CN(c3nc(CN4CCOCC4)cs3)C2)nc2c1cnn2C1CCCCC1 [Example 142, 1-cyclohexyl-6-(1-(4-(morpholinomethyl)thiazol-2-yl)azetidin-3-yl)-1H-pyrazolo[3,4-d]pyrimidin-4(5H)-one]",101 to 500 nM
18,"CC(C)N1CCN(Cc2csc(N3CC(c4nc5c(cnn5C5CCCCC5)c(=O)[nH]4)C3)n2)CC1 [Example 143, 1-cyclohexyl-6-(1-(4-((4-isopropylpiperazin-1-yl)methyl)thiazol-2-yl)azetidin-3-yl)-1H-pyrazolo[3,4-d]pyrimidin-4(5H)-one]",1000 to 1500 nM

row,SMILES,IC50
1,"CN1CCN(c2ccc3[nH]c(N4CC(c5nc6c(cnn6C(C)(C)C)c(=O)[nH]5)C4)nc3c2)CC1 [Example 144, 1-tert-butyl-6-(1-(5-(4-methylpiperazin-1-yl)-1H-benzo[d]imidazol-2-yl)azetidin-3-yl)-1H-pyrazolo[3,4-d]pyrimidin-4(5H)-one]",101 to 500 nM
2,"O=c1[nH]c(C2CN(c3ccc(S(=O)(=O)N4CCOCC4)cc3)C2)nc2c1cnn2C1CCCCC1 [Example 145, 1-Cyclohexyl-6-(1-(4-(Morpholinosulfonyl)phenyl)azetidin-3-yl)-1H-pyrazolo[3,4-d]pyrimidin-4(5H)-one]",1 to 100 nM
3,"Nc1cc(N2CC(c3nc4c(cnn4C4CCCCC4)c(=O)[nH]3)C2)ccc1[N+](=O)[O-] [Example 146, 6-(1-(3-amino-4-nitrophenyl)azetidin-3-yl)-1-cyclohexyl-1H-pyrazolo[3,4-d]pyrimidin-4(5H)-one]",1 to 100 nM
4,"CC(=O)c1ccc(N2CC(c3nc4c(cnn4C4CCCCC4)c(=O)[nH]3)C2)cc1 [Example 147, 6-(1-(4-acetoylphenyl)azetidin-3-yl)-1-cyclohexyl-1H-pyrazolo[3,4-d]pyrimidin-4(5H)-one]",1 to 100 nM
5,"N#Cc1ccc(N2CC(c3nc4c(cnn4C4CCCCC4)c(=O)[nH]3)C2)cc1 [Example 148, 4-(3-(1-cyclohexyl-4-oxo-4,5-dihydro-1H-pyrazolo[3,4-d]pyrimidin-6-yl)azetidin-1-yl)benzonitrile]",1 to 100 nM
6,"Cc1cc(N2CC(c3nc4c(cnn4C4CCCCC4)c(=O)[nH]3)C2)ccc1[N+](=O)[O-] [Example 149, 1-cyclohexyl-6-(1-(3-methyl-4-nitrophenyl)azetidin-3-yl)-1H-pyrazolo[3,4-d]pyrimidin-4(5H)-one]",1 to 100 nM
7,"N#Cc1ccccc1N1CC(c2nc3c(cnn3C3CCCCC3)c(=O)[nH]2)C1 [Example 150, 2-(3-(1-cyclohexyl-4-oxo-4,5-dihydro-1H-pyrazolo[3,4-d]pyrimidin-6-yl)azetidin-1-yl)benzonitrile]",101 to 500 nM
8,"CC(=O)c1ccccc1N1CC(c2nc3c(cnn3C3CCCCC3)c(=O)[nH]2)C1 [Example 151, 6-(1-(2-acetoylphenyl)azetidin-3-yl)-1-cyclohexyl-1H-pyrazolo[3,4-d]pyrimidin-4(5H)-one]",101 to 500 nM
9,"O=c1[nH]c(C2CN(c3ccc(C(F)(F)F)cc3)C2)nc2c1cnn2C1CCCCC1 [Example 152, 1-cyclohexyl-6-(1-(4-(trifluoromethyl)phenyl)azetidin-3-yl)-1H-pyrazolo[3,4-d]pyrimidin-4(5H)-one]",101 to 500 nM
10,"O=c1[nH]c(C2CCCN(c3ccc([N+](=O)[O-])cn3)C2)nc2c1cnn2C1CCCCC1 (centres unmarked) [Example 153, 1-cyclohexyl-6-(1-(5-nitropyridin-2-yl)piperidin-3-yl)-1H-pyrazolo[3,4-d]pyrimidin-4(5H)-one]",1000 to 1500 nM
11,"O=c1[nH]c(C2CCCN(c3ccc(C(F)(F)F)cn3)C2)nc2c1cnn2C1CCCCC1 (centres unmarked) [Example 154, 1-cyclohexyl-6-(1-(5-(trifluoromethyl)pyridin-2-yl)piperidin-3-yl)-1H-pyrazolo[3,4-d]pyrimidin-4(5H)-one]",1000 to 1500 nM
12,"O=c1[nH]c(C2CN(c3ccc(CN4CCOCC4)cc3)C2)nc2c1cnn2C1CCCCC1 [Example 155, 1-Cyclohexyl-6-[1-(4-morpholin-4-ylmethyl-phenyl)-azetidin-3-yl]-1,5-dihydro-pyrazolo[3,4-d]pyrimidin-4-one]",1 to 100 nM
13,"O=c1[nH]c(C2CN(c3ccccc3CN3CCOCC3)C2)nc2c1cnn2C1CCCCC1 [Example 156, 1-Cyclohexyl-6-(1-(2-(morpholinomethyl)phenyl)azetidin-3-yl)-1H-pyrazolo[3,4-d]pyrimidin-4(5H)-one]",101 to 500 nM
14,"CC(C)(C)c1csc(N2CC(c3nc4c(cnn4C4CCCCC4)c(=O)[nH]3)C2)n1 [Example 157, 6-(1-(4-tert-Butylthiazol-2-yl)azetidin-3-yl)-1-cyclohexyl-1H-pyrazolo[3,4-d]pyrimidin-4-(5H)-one]",101 to 500 nM
15,"O=c1[nH]c(C2CN(c3nnc(-c4ccccc4)[nH]3)C2)nc2c1cnn2C1CCCCC1 [Example 158, 1-Cyclohexyl-6-(1-(5-phenyl-4H-1,2,4-triazol-3-yl)azetidin-3-yl)-1H-pyrazolo[3,4-d]pyrimidin-4-(5H)-one]",1 to 100 nM
16,"O=c1[nH]c(C2CN(c3nc(-c4ccccc4)cs3)C2)nc2c1cnn2C1CCCCC1 [Example 159, 1-Cyclohexyl-6-(1-(4-phenylthiazol-2-yl)azetidin-3-yl)-1H-pyrazolo[3,4-d]pyrimidin-4-(5H)-one]",1 to 100 nM
17,"O=c1[nH]c(C2CN(c3ncc(-c4ccccc4)s3)C2)nc2c1cnn2C1CCCCC1 [Example 160, 1-Cyclohexyl-6-(1-(5-phenylthiazol-2-yl)azetidin-3-yl)-1H-pyrazolo[3,4-d]pyrimidin-4-(5H)-one]",101 to 500 nM
